According to EPA's ToxValDB 9.5 (doi:10.2903/j.efsa.2008.177r):
Values after ≈ are worked out from the molar mass of the structure shown.

Key:
[1] = tested on: Colinus virginianus; details: for LD50: acute, oral, mortality; for NOEL: reproduction developmental
[2] = tested on: Rattus norvegicus; details: for LD50: mortality
[3] = tested on: Apis mellifera; details: acute; duration: 48 hours; dermal; mortality
[4] = tested on: Bibionidae; details: chronic/long-term; duration: 28 days
[5] = tested on: Daphnia magna; details: chronic/long-term; duration: 21 days; reproduction
[6] = tested on: Leuciscus idus; details: acute; duration: 96 hours; mortality
[7] = tested on: Oncorhynchus mykiss; details: chronic/long-term; duration: 28 days; growth
[8] = tested on: Plant; details: not reported; seedling emergence
[9] = tested on: Tagia sp.
[10] = tested on: Aphidius rhopalosiphi; test: LR50; higher = less toxic; details: acute; duration: 48 hours; mortality
[11] = tested on: Typhlodromus pyri; test: LR50; higher = less toxic; details: acute; duration: 14 days; mortality

NC(Cc1ncn[nH]1)C(=O)O (centres undefined) [1,2,4-Triazole-3-alanine] gave an LD50 ([1]; diet) of 1310 mg/kg-day, an LD50 [1] greater than 5000 mg/kg-day and an LD50 ([2]; acute, oral) greater than 5000 mg/kg-day.

c1nc[nH]n1 [1H-1,2,4-Triazole] was tested, and the LD50 ([2]; acute, oral) was 1650 mg/kg-day.

CC(C)(C)C(=O)C(Oc1ccc(Cl)cc1)n1cncn1 (centres undefined) [Triadimefon] showed an NOEL [1] of 43.5 mg/kg-day.

Work on CC(C)(C)C(O)C(Oc1ccc(Cl)cc1)n1cncn1 (centres undefined) [Triadimenol] yielded an LD50 [3] greater than 200 µg/piece, an NOEC [4] of 0.1 mg/L and an LD50 ([1]; diet) greater than 705 mg/kg-day. The LD50 [1] was greater than 2000 mg/kg-day, the NOEL [1] was 7.5 mg/kg-day and the NOEC [5] was 0.1 mg/L. It also gave an LC50 [6] of 17.4 µg/mL (≈ 58.8 µM), an NOEC [7] of 3.13 mg/L and an LEL [8] of 125 g/ha. For the same molecule, the LD50 ([2]; acute, oral, M) was 689 mg/kg-day, the NOAEL ([2]; acute, oral, clinical signs) was 2 mg/kg-day and the NOAEL ([2]; chronic, duration: 2 years, organ weight) was 5 mg/kg-day. The NOEL ([2]; reproduction developmental, M, growth) was 8.88 mg/kg-day, the NOAEL ([2]; reproduction developmental, body weight) was 6 mg/kg-day and the NOAEL ([2]; subchronic, clinical signs) was 3.4 mg/kg-day. The LC50 ([9]; acute, mortality) was 781 mg/kg, the NOEC ([9]; chronic/long-term) was 100 mg/kg and the LR50 [10] was greater than 1250 g/ha. It also gave an LR50 [11] greater than 1250 g/ha.
